# How the values were obtained:
# [1] = system: 5-HT1A serotonin receptor subtype; conditions: standard for anxiolytic activity; cited from earlier work
# [2] = target: T1, serotonin 5-HT1A receptor (Rattus norvegicus, UniProt P19327); test: 5-HT1A Binding (displacement of [3H] 8-OHDPAT)
# T1 construct: following the procedure of Hall et al., J. Neurochem; 44, 1685 (1985); from tissue
# T1 sequence (P19327 1-422): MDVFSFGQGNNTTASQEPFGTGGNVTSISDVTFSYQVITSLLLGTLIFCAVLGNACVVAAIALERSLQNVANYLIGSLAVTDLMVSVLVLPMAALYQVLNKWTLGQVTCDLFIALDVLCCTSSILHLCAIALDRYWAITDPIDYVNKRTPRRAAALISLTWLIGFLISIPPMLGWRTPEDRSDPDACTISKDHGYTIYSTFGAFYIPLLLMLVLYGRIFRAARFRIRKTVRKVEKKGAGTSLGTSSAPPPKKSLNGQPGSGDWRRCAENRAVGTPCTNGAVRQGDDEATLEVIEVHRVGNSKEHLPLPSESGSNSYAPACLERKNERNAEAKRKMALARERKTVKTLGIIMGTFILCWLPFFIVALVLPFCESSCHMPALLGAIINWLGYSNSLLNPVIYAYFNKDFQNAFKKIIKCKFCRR
# Excerpt: High affinity for the serotonin 5-HT1A receptor was established by testing the claimed compound's ability to displace [^3 H] 8-OHDPAT (dipropylaminotetralin) from the 5-HT1A serotonin receptor following the procedure of Hall et al., J. Neurochem. 44, 1685 (1985). […] The anxiolytic activity of buspirone is believed to be, at least partially, due to its 5-HT1A receptor affinity (Vander Maclen et al., Eur. J. Pharmacol. 1986, 129 (1-2) 133-130).
# 5-HT1A receptor site = conditions: cited from earlier work
# dopamine D-2 receptor = target: T2, dopamine D-2 receptor (Rattus norvegicus, UniProt P61169); test: D-2 Binding (3H-spiroperidol, homogenized limbic brain tissue)
# T2 construct: from tissue; host or cells: homogenized limbic brain tissue
# Procedure: High affinity for the dopamine D-2 receptor was established by the standard experimental test procedure of Fields, et al., Brain Res., 136, 578 (1977) and Yamamura et al., eds., Neurotransmitter Receptor Binding, Raven Press, N.Y. (1978) wherein homogenized limbic brain tissue is incubated with ^3 H-spiroperidol and various concentrations of test compound, filtered and washed and shaken with Hydrofluor scintillation cocktail (National Diagnostics) and counted in a Packard 460 CD scintillation counter.
# T2 sequence (P61169 whole entry): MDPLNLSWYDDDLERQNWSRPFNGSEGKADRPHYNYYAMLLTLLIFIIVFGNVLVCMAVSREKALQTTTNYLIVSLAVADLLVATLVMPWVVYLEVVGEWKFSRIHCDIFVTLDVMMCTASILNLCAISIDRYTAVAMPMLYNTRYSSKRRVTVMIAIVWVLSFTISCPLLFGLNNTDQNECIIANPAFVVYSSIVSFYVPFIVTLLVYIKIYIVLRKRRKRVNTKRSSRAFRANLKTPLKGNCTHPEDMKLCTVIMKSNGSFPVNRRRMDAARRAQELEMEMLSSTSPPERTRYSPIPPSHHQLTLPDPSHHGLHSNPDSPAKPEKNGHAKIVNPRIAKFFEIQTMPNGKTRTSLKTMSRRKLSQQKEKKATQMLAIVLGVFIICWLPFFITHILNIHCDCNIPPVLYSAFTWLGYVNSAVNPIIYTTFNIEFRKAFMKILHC
inhibition at 0.1 µM [2],inhibition at 1 µM (dopamine D-2 receptor),Structure (SMILES),other results
,,O=C1CC2(CCCC2)CC(=O)N1CCCCN1CCN(c2ncccn2)CC1 [buspirone],affinity for the 5-HT1A serotonin receptor subtype [1]: potent affinity
45%,,"O=C1c2ccccc2S(=O)(=O)N1C1CCN(CC2COc3ccccc3O2)CC1 (stereo not drawn) [Example 3, 2-[1-[(2,3-Dihydro-1,4-benzodioxin-2-yl)methyl]-4-piperidinyl]-1,2-benzoisothiazol-3(2H)-one 1,1-dioxide]",
,,"O=C1CC2(CCCC2)CC(=O)N1CCCCNCC1COc2ccccc2O1 (stereo not drawn) [MDL 72832, 8-[4-(1,4-benzodioxan-2-ylmethylamino)butyl]-8-azaspiro[4.5]decane-7,9-dione]",ligand selectivity for 5-HT1A receptors (5-HT1A receptor site; Fozard et al. 1987): selective and stereospecific
59%,29%,"O=C(NC1CCN(CC2COc3ccccc3O2)CC1)C12CC3CC(CC(C3)C1)C2 (stereo not drawn) [Example 1, N-[1-[(2,3-Dihydro-1,4-benzodioxin-2-yl)methyl]-4-piperidinyl]tricyclo[3.3.1.1^3,7]decane-1-carboxamide]",IC50 [2]: 107 nM
,,"O=C1CC2(CCCC2)CC(=O)N1CCCCNCC1COc2ccccc2O1 (single isomer, unassigned; (-)) [(-)-MDL 72832]",binding at the 5-HT1A receptor site relative to the dextrorotary isomer (5-HT1A receptor site; (-)-isomer vs dextrorotary isomer): 32 times
92%,52%,"O=C(NCC1CCN(CC2COc3ccccc3O2)CC1)C12CC3CC(CC(C3)C1)C2 (stereo not drawn) [Example 5, N-[[1-[(2,3-Dihydro-1,4-benzodioxin-2-yl)methyl]-4-piperidinyl]methyl]tricyclo[3.3.1.1^3,7]decane-1-carboxamide]",
4%,,"O=C1C2C3C=CC(C4C=CC43)C2C(=O)N1C1CCN(CC2COc3ccccc3O2)CC1 (stereo not drawn) [Example 2, 3a, 4,4a, 6a, 7,7a-Hexahydro-2-[1-[(2,3-Dihydro-1,4-benzodioxin-2-yl)methyl]-4-piperidinyl]-4,7-etheno-1H-cyclobut[f]isoindole-1,3(2H)-dione]",
96%,97%,"O=C1C2CC(C(=O)N1CC1CCN(CC3COc4ccccc4O3)CC1)C1C2C2C3CC4C2C4C31 (stereo not drawn) [Example 4, 3-[[1-[(2,3-Dihydro-1,4-benzodioxin-2-yl)methyl]-4-piperidinyl]methyl]decahydro-2H-1,5-methano-6,7,9-methenopentaleno[1,2-d]azepine-2,4(3H)-dione]",
